This is an account of results in patent US11638707B2, “Substituted amino triazoles useful as chitinase inhibitors” (Molecure S.A., priority 2019, dated 2023).

One series deals with hERG channel (Homo sapiens (Human), UniProt Q12809). As to the kind of experiment: Human ERG channel binding assay (fluorescence polarization). As to conditions: Table 1; tracer displacement, 4 h at room temperature. Here is the method: Human ERG Channel Binding Assay
Fluorescence polarization assay based on the principle of fluorescence polarization where a red-shifted fluorescent tracer is displaced from the hERG channel by compounds that bind to the channel was used to establish the binding of the compounds to hERG channel. […] Briefly, the compounds in serial dilutions were incubated with a membrane fraction containing hERG channel protein and a high-affinity red fluorescent hERG channel ligand in black 384-well plate. […] The IC50 values were calculated using GraphPad Prism.
(In general: Polarisation of emitted light reports the rotation of a fluorescent probe.)

The target in the next series is recombinant human AMCase (Homo sapiens (Human), UniProt Q9BZP6). As to the kind of experiment: Human AMCase activity assay. In kind it is biochemical. The following applies: citrate buffer pH 5.2, 37° C., 60 minutes, read-out: hAMCase, IC50. Here is the method: (§1) The assay was run in the 96-well plate format, each reaction in the total volume of 100 μL. 4-Methylumbelliferyl B-D-N,N′-diacetylchitobioside hydrate was used as a substrate for the enzyme. Upon hydrolysis by AMCase, the substrate releases 4-methylumbelliferyl (4MU) that, when ionized in basic pH, emits fluorescence at 460 nm. Briefly, 40 μL of a substrate was added to each well, followed by 10 μL of compound dilution and 50 μL of hAMCase recombinant enzyme solution. The reaction was carried out in citrate buffer, pH 5.2, in the dark, at 37° C. for 60 minutes with shaking. […] The IC50 values were calculated using GraphPad Prism.
recombinant human AMCase, sequence (Q9BZP6 22-476): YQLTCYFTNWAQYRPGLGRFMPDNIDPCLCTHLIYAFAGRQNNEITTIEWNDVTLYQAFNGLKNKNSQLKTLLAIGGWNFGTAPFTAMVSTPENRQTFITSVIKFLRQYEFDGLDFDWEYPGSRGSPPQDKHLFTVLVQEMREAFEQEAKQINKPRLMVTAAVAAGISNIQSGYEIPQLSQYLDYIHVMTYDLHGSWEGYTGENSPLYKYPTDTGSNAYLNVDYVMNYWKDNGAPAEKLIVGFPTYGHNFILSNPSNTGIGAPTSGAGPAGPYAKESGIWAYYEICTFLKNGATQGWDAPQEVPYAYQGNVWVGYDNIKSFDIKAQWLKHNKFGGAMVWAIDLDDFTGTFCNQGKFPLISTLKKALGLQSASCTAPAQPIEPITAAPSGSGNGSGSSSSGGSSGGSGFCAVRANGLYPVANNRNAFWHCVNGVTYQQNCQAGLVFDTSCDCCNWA

Another series has as its target recombinant human CHIT1 (Homo sapiens (Human), UniProt Q13231). As to the kind of experiment: Human CHIT1 activity assay. Format: biochemical. As to conditions: recombinant human CHIT1, citrate buffer pH 5.2, 37° C., 60 minutes; read-out: hCHIT1, IC50. Here is the method:
as §1, with “4-methylumbelliferyl β-D-N,N′,N″-triacetylchitotriose” for “4-Methylumbelliferyl B-D-N,N′-diacetylchitobioside hydrate”, “CHIT1,” for “AMCase,”, “CHIT1” for “hAMCase”

recombinant human CHIT1, sequence (Q13231 22-466): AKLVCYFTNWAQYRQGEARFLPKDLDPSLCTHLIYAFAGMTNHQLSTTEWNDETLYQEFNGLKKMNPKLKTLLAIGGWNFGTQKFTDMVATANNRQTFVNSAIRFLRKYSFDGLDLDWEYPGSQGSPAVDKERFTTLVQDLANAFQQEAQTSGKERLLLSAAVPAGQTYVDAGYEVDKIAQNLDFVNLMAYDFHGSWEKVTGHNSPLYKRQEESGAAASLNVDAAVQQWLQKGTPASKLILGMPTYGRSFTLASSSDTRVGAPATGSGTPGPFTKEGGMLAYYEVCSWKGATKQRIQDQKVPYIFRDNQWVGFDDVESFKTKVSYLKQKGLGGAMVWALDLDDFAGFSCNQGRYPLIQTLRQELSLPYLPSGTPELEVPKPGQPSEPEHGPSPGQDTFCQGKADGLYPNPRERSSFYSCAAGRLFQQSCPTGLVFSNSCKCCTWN
hERG channel, sequence (Q12809 whole entry): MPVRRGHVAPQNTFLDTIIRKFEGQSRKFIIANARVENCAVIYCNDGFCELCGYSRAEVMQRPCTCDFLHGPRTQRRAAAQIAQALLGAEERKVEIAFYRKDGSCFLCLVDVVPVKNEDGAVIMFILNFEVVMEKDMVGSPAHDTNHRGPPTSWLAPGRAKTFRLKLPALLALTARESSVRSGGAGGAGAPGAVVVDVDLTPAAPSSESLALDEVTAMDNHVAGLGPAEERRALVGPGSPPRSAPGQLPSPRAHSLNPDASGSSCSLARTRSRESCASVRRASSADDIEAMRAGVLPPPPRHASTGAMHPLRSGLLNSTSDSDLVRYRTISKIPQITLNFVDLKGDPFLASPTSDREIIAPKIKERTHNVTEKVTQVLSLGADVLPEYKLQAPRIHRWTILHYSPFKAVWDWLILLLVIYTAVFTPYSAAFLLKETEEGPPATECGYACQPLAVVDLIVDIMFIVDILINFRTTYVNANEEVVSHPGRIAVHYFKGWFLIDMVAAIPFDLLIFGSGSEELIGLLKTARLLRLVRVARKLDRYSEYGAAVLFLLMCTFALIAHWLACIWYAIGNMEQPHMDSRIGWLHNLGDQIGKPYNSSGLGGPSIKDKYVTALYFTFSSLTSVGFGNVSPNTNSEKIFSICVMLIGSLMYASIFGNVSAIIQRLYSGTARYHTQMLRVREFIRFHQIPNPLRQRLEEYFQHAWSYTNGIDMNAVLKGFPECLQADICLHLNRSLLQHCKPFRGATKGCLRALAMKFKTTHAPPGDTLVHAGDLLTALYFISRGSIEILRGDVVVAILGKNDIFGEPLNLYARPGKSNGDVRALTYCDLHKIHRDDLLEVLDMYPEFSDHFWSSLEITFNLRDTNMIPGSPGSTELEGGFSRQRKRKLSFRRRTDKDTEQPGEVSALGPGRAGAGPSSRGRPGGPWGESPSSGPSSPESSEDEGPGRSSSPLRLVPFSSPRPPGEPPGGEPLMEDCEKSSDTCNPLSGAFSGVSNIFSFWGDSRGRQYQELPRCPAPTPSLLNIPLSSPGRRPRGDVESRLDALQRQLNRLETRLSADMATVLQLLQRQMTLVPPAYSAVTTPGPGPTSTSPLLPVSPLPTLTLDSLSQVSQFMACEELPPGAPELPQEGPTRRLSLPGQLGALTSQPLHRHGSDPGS

By IC50 is commonly meant the point on the concentration scale where inhibition reaches its midpoint. Consider `CC(C)(F)[C@H]1CN(C2CCN(c3nnc(N)[nH]3)CC2)[C@@H](Cc2ccc(Cl)cc2)CO1` [Example 1, 5-(4-((2R,5S)-5-(4-chlorobenzyl)-2-(2-fluoropropan-2-yl)morpholino)piperidin-1-yl)-4H-1,2,4-triazol-3-amine 2,2,2-trifluoroacetate], for which the IC50 at hERG channel was 25000 to 100000 nM; at recombinant human AMCase, less than 100 nM; on recombinant human CHIT1, less than 100 nM.
On to `Nc1nnc(N2CCC(N3C[C@H](C(F)F)OC[C@@H]3Cc3ccc(Cl)cc3)CC2)[nH]1` [Example 2, 5-(4-((2R,5S)-5-(4-chlorobenzyl)-2-(difluoromethyl)morpholino)piperidin-1-yl)-4H-1,2,4-triazol-3-amine 2,2,2-trifluoroacetate], for which the half-maximal inhibitory concentration (IC50) is more than 100000 nM on hERG channel, less than 100 nM at recombinant human AMCase and less than 100 nM on recombinant human CHIT1.
On to `Nc1nnc(N2CCC(N3C[C@H](CF)OC[C@@H]3Cc3ccc(Cl)cc3)CC2)[nH]1` [Example 3, 5-(4-((2R,5S)-5-(4-chlorobenzyl)-2-(fluoromethyl)morpholino)piperidin-1-yl)-4H-1,2,4-triazol-3-amine 2,2,2-trifluoroacetate], for which the IC50 at hERG channel was more than 100000 nM; on recombinant human AMCase, less than 100 nM; at recombinant human CHIT1, less than 100 nM.
In the case of `Nc1nnc(N2CCC(N3C[C@H](Cc4nn[nH]n4)OC[C@@H]3Cc3ccc(Cl)cc3)CC2)[nH]1` [Example 4, 5-(4-((2S,5S)-2-((2H-tetrazol-5-yl)methyl)-5-(4-chlorobenzyl)morpholino)-piperidin-1-yl)-4H-1,2,4-triazol-3-amine 2,2,2-trifluoroacetate], the IC50 was more than 100000 nM on hERG channel, less than 100 nM on recombinant human AMCase and less than 100 nM at recombinant human CHIT1.
Turning to `Cn1nnc(C[C@H]2CN(C3CCN(c4nnc(N)[nH]4)CC3)[C@@H](Cc3ccc(Cl)cc3)CO2)n1` [Example 5, 5-(4-((2S,5S)-5-(4-chlorobenzyl)-2-((2-methyl-2H-tetrazol-5-yl)methyl)-morpholino)piperidin-1-yl)-4H-1,2,4-triazol-3-amine 2,2,2-trifluoroacetate], the results for the half-inhibitory concentration (IC50) on hERG channel, at recombinant human AMCase and on recombinant human CHIT1 were 25000 to 100000 nM, less than 100 nM and less than 100 nM, respectively.
`N#CC[C@H]1CN(C2CCN(c3nnc(N)[nH]3)CC2)[C@@H](Cc2ccc(Cl)cc2)CO1` [Example 6, 2-((2S,5S)-4-(1-(5-amino-4H-1,2,4-triazol-3-yl)piperidin-4-yl)-5-(4-chlorobenzyl)-morpholin-2-yl)acetonitrile 2,2,2-trifluoroacetate]: the values for the IC50 on hERG channel, on recombinant human AMCase and on recombinant human CHIT1 were more than 100000 nM, less than 100 nM and less than 100 nM, respectively.
Take `Nc1nnc(N2CCC(N3C[C@H](CN4CCCC4=O)OC[C@@H]3Cc3ccc(Cl)cc3)CC2)[nH]1` [Example 7, 1-(((2R,5S)-4-(1-(5-amino-4H-1,2,4-triazol-3-yl)piperidin-4-yl)-5-(4-chlorobenzyl)-morpholin-2-yl)methyl)pyrrolidin-2-one 2,2,2-trifluoroacetate]: the half-inhibitory concentration (IC50) on hERG channel was more than 100000 nM; at recombinant human AMCase, less than 100 nM; on recombinant human CHIT1, less than 100 nM.
Consider `N#Cc1cnn(C[C@H]2CN(C3CCN(c4nnc(N)[nH]4)CC3)[C@@H](Cc3ccc(Cl)cc3)CO2)c1` [Example 8, 1-(((2R,5S)-4-(1-(5-amino-4H-1,2,4-triazol-3-yl)piperidin-4-yl)-5-(4-chlorobenzyl)-morpholin-2-yl)methyl)-1H-pyrazole-4-carbonitrile 2,2,2-trifluoroacetate], for which the half-inhibitory concentration (IC50) on hERG channel is 25000 to 100000 nM; at recombinant human AMCase it was less than 100 nM; on recombinant human CHIT1, less than 100 nM.
Regarding `Cn1ccc([C@H]2CN(C3CCN(c4nnc(N)[nH]4)CC3)[C@@H](Cc3ccc(Cl)cc3)CO2)n1` [Example 9, 5-(4-((2R,5S)-5-(4-chlorobenzyl)-2-(1-methyl-1H-pyrazol-3-yl)morpholino)-piperidin-1-yl)-4H-1,2,4-triazol-3-amine 2,2,2-trifluoroacetate], the IC50 is more than 100000 nM at hERG channel, less than 100 nM on recombinant human AMCase and less than 100 nM on recombinant human CHIT1.
In the case of `Cn1nccc1[C@H]1CN(C2CCN(c3nnc(N)[nH]3)CC2)[C@@H](Cc2ccc(Cl)cc2)CO1` [Example 10, 5-(4-((2R,5S)-5-(4-chlorobenzyl)-2-(1-methyl-1H-pyrazol-5-yl)morpholino)piperidin-1-yl)-4H-1,2,4-triazol-3-amine 2,2,2-trifluoroacetate], the concentration for half-maximal inhibition (IC50) on hERG channel was more than 100000 nM; at recombinant human AMCase it was less than 100 nM; on recombinant human CHIT1 it was less than 100 nM.
In the case of `Cc1cc([C@H]2CN(C3CCN(c4nnc(N)[nH]4)CC3)[C@@H](Cc3ccc(Cl)cc3)CO2)nn1C` [Example 11, 5-(4-((2R,5S)-5-(4-chlorobenzyl)-2-(1,5-dimethyl-1H-pyrazol-3-yl)morpholino)-piperidin-1-yl)-4H-1,2,4-triazol-3-amine 2,2,2-trifluoroacetate], the IC50 at hERG channel was more than 100000 nM; on recombinant human AMCase it was less than 100 nM; on recombinant human CHIT1 it was less than 100 nM.
For the compound `Nc1nnc(N2CCC(N3C[C@H](c4ccn[nH]4)OC[C@@H]3Cc3ccc(Cl)cc3)CC2)[nH]1` [Example 12, 5-(4-((2R,5S)-5-(4-chlorobenzyl)-2-(1H-pyrazol-5-yl)morpholino)piperidin-1-yl)-4H-1,2,4-triazol-3-amine 2,2,2-trifluoroacetate], the IC50 was more than 100000 nM on hERG channel, less than 100 nM on recombinant human AMCase and less than 100 nM at recombinant human CHIT1.
For the compound `Nc1nnc(N2CCC(N3C[C@H](Cn4cccn4)OC[C@@H]3Cc3ccc(Cl)cc3)CC2)[nH]1` [Example 13, 5-(4-((2R,5S)-2-((1H-pyrazol-1-yl)methyl)-5-(4-chlorobenzyl)morpholino)-piperidin-1-yl)-4H-1,2,4-triazol-3-amine 2,2,2-trifluoroacetate], the half-inhibitory concentration (IC50) on hERG channel is more than 100000 nM; at recombinant human AMCase it was less than 100 nM; on recombinant human CHIT1, less than 100 nM.
Take `Nc1nnc(N2CCC(N3C[C@H](CC(F)(F)F)OC[C@@H]3Cc3ccc(Cl)cc3)CC2)[nH]1` [Example 14, 5-(4-((2S,5S)-5-(4-chlorobenzyl)-2-(2,2,2-trifluoroethyl)morpholino)piperidin-1-yl)-4H-1,2,4-triazol-3-amine 2,2,2-trifluoroacetate]: the IC50 at hERG channel was more than 100000 nM; on recombinant human AMCase it was less than 100 nM; on recombinant human CHIT1, less than 100 nM.
For the compound `Nc1nnc(N2CCC(N3C[C@H](CN4CCOCC4)OC[C@@H]3Cc3ccc(Cl)cc3)CC2)[nH]1` [Example 15, 5-(4-((2S,5S)-5-(4-chlorobenzyl)-2-(morpholinomethyl)morpholino)piperidin-1-yl)-4H-1,2,4-triazol-3-amine 2,2,2-trifluoroacetate], the IC50 at hERG channel was more than 100000 nM; at recombinant human AMCase it was less than 100 nM; at recombinant human CHIT1, less than 100 nM.
For the compound `Nc1nnc(N2CCC(N3C[C@H]([C@H](O)C(F)(F)F)OC[C@@H]3Cc3ccc(Cl)cc3)CC2)[nH]1` [Example 16, (S)-1-((2R,5S)-4-(1-(5-amino-4H-1,2,4-triazol-3-yl)piperidin-4-yl)-5-(4-chloro-benzyl)morpholin-2-yl)-2,2,2-trifluoroethanol 2,2,2-trifluoroacetate], the IC50 on hERG channel was more than 100000 nM; at recombinant human AMCase, less than 100 nM; on recombinant human CHIT1 it was less than 100 nM.
For `Nc1nnc(N2CCC(N3C[C@H]([C@@H](O)C(F)(F)F)OC[C@@H]3Cc3ccc(Cl)cc3)CC2)[nH]1` [Example 17, (R)-1-((2R,5S)-4-(1-(5-amino-4H-1,2,4-triazol-3-yl)piperidin-4-yl)-5-(4-chlorobenzyl)morpholin-2-yl)-2,2,2-trifluoroethanol 2,2,2-trifluoroacetate], the figures for the IC50 on hERG channel, at recombinant human AMCase and on recombinant human CHIT1 were 25000 to 100000 nM, less than 100 nM and less than 100 nM, respectively.
Regarding `Nc1nnc(N2CCC(N3C[C@H](Cn4ccnn4)OC[C@@H]3Cc3ccc(Cl)cc3)CC2)[nH]1` [Example 21, 5-(4-((2R,5S)-2-((1H-1,2,3-triazol-1-yl)methyl)-5-(4-chlorobenzyl)morpholino)-piperidin-1-yl)-4H-1,2,4-triazol-3-amine 2,2,2-trifluoroacetate], the 50% inhibitory concentration (IC50) at hERG channel was 25000 to 100000 nM; at recombinant human AMCase it was less than 100 nM; on recombinant human CHIT1 it was less than 100 nM.
As to `Cc1cc([C@H]2CN(C3CCN(c4nnc(N)[nH]4)CC3)[C@@H](Cc3ccc(Cl)cc3)CO2)on1` [Example 22, 5-(4-((2R,5S)-5-(4-chlorobenzyl)-2-(3-methylisoxazol-5-yl)morpholino)piperidin-1-yl)-4H-1,2,4-triazol-3-amine 2,2,2-trifluoroacetate], the half-inhibitory concentration (IC50) at hERG channel was more than 100000 nM; on recombinant human AMCase, less than 100 nM; on recombinant human CHIT1, less than 100 nM.
